Molecular target: T1, human TRPV4 (Homo sapiens, UniProt Q9HBA0)
T1 construct: expressed in transfected cells; host or cells: HeLa cells, transient transfection with a pcDNA 3.1 Directional TOPO vector
Test: Evaluation of TRPV4 activity-inhibiting action: intracellular calcium ion influx rate in human TRPV4-expressing HeLa cells stimulated with GSK1016790a (Fluo 4)
Assay type: cell-based
Conditions: for Intracellular Ca^2+ influx rate (%): GSK + DMSO defined as 100%, n = 3, Mean ± S.E.; for calcium ion influx into cells by a TRPV4 agonist (result in words): concentration-dependent, 100 and 300 μM, vs GSK1016790a + DMSO, Dunnett's test
Procedure: HeLa cells were cultured using a DMEM/F12 medium containing 10% fetal bovine serum. The HeLa cells were seeded in a T-75 cell culture flask at 5×10^5 cells/flask. The cells were cultured for 3 days, were then transfected with the human TRPV4 gene expression vector (8 μg) produced in the above (2) using TransIT-HeLaMONSTER Transfection Kit, and were cultured for 1 day.
The cells were detached with Detachin, were seeded in a 96-well optical bottom plate containing a DMEM/F12 medium containing 10% fetal bovine serum at a cell density of 1.5×10^4 cells/90 μL/well, and were further cultured for 1 day.
The intracellular calcium ion influx rate was measured using Calcium Kit II-fluo 4. Loading buffer containing Fluo 4-AM and Hanks' balanced salt solution were mixed at 1:1 and were then added to the human TRPV4-expressing cells produced in the above (3) at 180 μL/well, followed by incubation at 37° C. for 1 hour. Subsequently, the fluorescence intensity (excitation wavelength: 488 nm, fluorescence wavelength: 524 nm) was measured every 2 seconds at 37° C. using a fluorescence plate reader FDSS3000 (Hamamatsu Photonics K.K.). 30 seconds after the start of the measurement, GSK1016790a as a TRPV4 agonist and the 4-O-methyl-rosmarinic acid or 3,4′-di-O-methyl-rosmarinic acid solution prepared in the above Manufacturing Example as a sample were each diluted with Hanks' balanced salt solution, and a mixture solution thereof (mixed immediately before the addition) was added at 20 μL/well. The change in fluorescence intensity was measured every 2 seconds for 300 seconds. GSK1016790a was added to give a final concentration of 3 nM.
In addition, as a positive control for TRPV4 activity inhibition, HC067047, which is a TRPV4 antagonist, was added at a final concentration of 10 μM. 4-O-Methyl-rosmarinic acid, 3,4′-di-O-methyl-rosmarinic acid, GSK1016790a, and HC067047 were all used by dissolving in dimethyl sulfoxide (DMSO).
The TRPV4 activity of a sample was calculated by the following expression, and the intracellular calcium ion influx rate due to the treatment with a TRPV4 agonist, GSK1016790a, was defined as 100%.
Intracellular calcium ion influx rate (%)=[(F max/F0)−(F max C2/F0C2)]/[(F max C1/F0C1)−(F max C2/F0C2)]×100
F max: Maximum fluorescence intensity of the well containing GSK1016790a and a sample in the period from 0 to 300 seconds after the start of the measurement,
F max C1: Maximum fluorescence intensity of the well containing GSK1016790a and a solvent in the period from 0 to 300 seconds after the start of the measurement,
F max C2: Maximum fluorescence intensity of the well containing only a solvent in the period from 0 to 300 seconds after the start of the measurement,
F0: Fluorescence intensity of the well of F max immediately after the start of the measurement,
F0C1: Fluorescence intensity of the well of F max C1 immediately after the start of the measurement, and
F0C2: Fluorescence intensity of the well containing only a solvent immediately after the start of the measurement.
The intracellular calcium ion influx rate (each group, n=3) when a sample was added was compared to that when GSK1016790a and a solvent (DMSO) were added and was examined by a Dunnett's test. […] The results are expressed as the mean value (Mean)±standard error (S.E.).

[1] = sample 100 μM with GSK1016790a 3 nM
[2] = sample 300 μM with GSK1016790a 3 nM

T1 sequence (Q9HBA0 whole entry): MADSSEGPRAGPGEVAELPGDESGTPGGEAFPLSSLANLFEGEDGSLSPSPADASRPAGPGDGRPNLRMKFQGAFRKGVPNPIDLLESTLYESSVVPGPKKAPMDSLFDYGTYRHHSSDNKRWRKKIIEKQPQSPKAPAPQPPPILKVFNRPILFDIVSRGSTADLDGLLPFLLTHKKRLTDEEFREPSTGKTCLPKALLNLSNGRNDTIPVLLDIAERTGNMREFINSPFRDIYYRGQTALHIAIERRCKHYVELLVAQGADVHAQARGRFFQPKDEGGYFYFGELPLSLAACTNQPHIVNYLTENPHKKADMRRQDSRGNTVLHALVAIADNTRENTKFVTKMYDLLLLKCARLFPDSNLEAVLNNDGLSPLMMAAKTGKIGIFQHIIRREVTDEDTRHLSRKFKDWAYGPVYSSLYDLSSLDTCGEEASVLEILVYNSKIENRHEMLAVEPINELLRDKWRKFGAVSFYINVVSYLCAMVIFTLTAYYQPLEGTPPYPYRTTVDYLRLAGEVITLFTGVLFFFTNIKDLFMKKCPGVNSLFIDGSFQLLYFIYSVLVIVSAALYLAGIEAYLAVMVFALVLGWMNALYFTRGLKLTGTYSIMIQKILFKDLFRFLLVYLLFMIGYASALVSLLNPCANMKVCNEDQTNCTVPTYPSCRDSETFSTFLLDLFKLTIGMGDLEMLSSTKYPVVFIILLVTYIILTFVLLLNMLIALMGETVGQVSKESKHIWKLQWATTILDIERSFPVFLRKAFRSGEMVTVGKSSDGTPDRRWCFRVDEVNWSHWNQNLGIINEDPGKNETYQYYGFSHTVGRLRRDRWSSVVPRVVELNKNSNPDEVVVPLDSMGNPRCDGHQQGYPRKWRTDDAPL

Structure (SMILES)	Intracellular Ca^2+ influx rate (%) (sample 10 μM with GSK1016790a 3 nM)	calcium ion influx into cells by a TRPV4 agonist (result in words)	Intracellular Ca^2+ influx rate (%) [1]	Intracellular Ca^2+ influx rate (%) [2]
Cc1c(C(=O)Nc2cccc(C(F)(F)F)c2)cc(-c2ccccc2)n1CCCN1CCOCC1 [HC067047, reference compound]	2.46 ± 0.14 (P < 0.001) %	–	–	–
COc1ccc(CC(OC(=O)/C=C/c2ccc(O)c(O)c2)C(=O)O)cc1O (stereo not shown) [4-Me-RA, (E)-3-(3-hydroxy-4-methoxyphenyl)-2-{[3-(3,4-dihydroxyphenyl)acryloyl]oxy}propionic acid]	–	significantly decreased	92.65 ± 0.89 (N.S.) %	82.90 ± 3.04 (P < 0.01) %
COc1ccc(/C=C/C(=O)OC(Cc2ccc(O)c(OC)c2)C(=O)O)cc1O (stereo not shown) [3,4′-DiMe-RA, (E)-3-(4-hydroxy-3-methoxyphenyl)-2-{[3-(3-hydroxy-4-methoxyphenyl)acryloyl]oxy}propionic acid]	–	significantly decreased	78.81 ± 1.73 (P < 0.001) %	71.25 ± 5.52 (P < 0..001) %
